Measured values published in publication PMC2918681 (Biochemical and biophysical research communications, 2010).

Experiments:
[1] = molecular target: T1, acyl-coenzyme A:cholesterol acyltransferase 1 (ACAT1) (Homo sapiens, UniProt P35610); assay: [3H]oleate incorporation into cholesteryl oleate in CHO-ACAT1 cells; assay type: cell-based
T1 sequence (P35610 1-550): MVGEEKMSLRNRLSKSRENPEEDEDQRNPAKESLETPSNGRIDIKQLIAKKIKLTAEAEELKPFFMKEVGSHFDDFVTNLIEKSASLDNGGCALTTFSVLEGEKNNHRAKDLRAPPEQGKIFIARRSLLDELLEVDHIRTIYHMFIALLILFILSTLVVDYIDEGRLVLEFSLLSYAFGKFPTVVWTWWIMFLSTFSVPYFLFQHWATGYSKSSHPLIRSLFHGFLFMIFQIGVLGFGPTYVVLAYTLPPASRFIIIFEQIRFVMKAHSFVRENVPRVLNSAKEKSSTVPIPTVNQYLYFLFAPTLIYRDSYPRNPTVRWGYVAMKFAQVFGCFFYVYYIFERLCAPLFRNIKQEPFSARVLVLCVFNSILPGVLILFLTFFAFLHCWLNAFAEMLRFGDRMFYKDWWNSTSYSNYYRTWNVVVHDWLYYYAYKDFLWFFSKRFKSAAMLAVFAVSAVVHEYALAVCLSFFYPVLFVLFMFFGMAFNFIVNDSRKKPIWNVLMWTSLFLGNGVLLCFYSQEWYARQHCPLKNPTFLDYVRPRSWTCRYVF

[2] = molecular target: T2, acyl-coenzyme A:cholesterol acyltransferase 2 (ACAT2) (Homo sapiens, UniProt O75908); assay: [3H]oleate incorporation into cholesteryl oleate in CHO-ACAT2 cells; assay type: cell-based
T2 sequence (O75908 1-522): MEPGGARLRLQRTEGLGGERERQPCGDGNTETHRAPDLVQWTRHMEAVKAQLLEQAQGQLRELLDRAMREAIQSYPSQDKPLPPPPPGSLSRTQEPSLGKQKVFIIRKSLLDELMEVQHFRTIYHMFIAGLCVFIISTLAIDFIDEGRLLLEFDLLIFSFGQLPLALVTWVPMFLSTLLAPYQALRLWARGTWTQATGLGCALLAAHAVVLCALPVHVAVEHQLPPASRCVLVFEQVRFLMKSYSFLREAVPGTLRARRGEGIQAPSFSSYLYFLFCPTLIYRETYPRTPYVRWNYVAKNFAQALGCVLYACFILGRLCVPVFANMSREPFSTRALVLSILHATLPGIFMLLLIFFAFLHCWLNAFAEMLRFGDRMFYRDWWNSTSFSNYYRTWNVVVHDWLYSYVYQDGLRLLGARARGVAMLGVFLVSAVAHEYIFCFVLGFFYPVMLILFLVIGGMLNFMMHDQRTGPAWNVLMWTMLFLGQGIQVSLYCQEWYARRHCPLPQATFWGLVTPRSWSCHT

IC50 [1]: 1.5 ± 1.2 µM
IC50 [2]: 2.2 ± 1.1 µM
Compound: Cc1c(C(=O)NN2CCCCC2)nn(-c2ccc(Cl)cc2Cl)c1-c1ccc(Cl)cc1 [Rimonabant]
